Laboratory results taken from the METLIN SMRT retention time set (Domingo-Almenara et al. 2019).

Assay: gradient 5% acetonitrile 3 min, to 50% in 2 min, to 85% in 15 min, held 3 min, 100 µL/min
Conditions: column: Zorbax Extend-C18 2.1 x 50 mm; eluents: water / acetonitrile, 0.1% formic acid
Method in brief: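 Retention times of pure standards were taken from adduct peaks that were selected by computer and manually inspected. Over 3 months, mixtures of ~100 molecules were run by HPLC–quadrupole time-of-flight mass spectrometry in positive and negative ionization mode. The Zorbax Extend-C18 column (2.1 × 50 mm, 1.8 μm) ran at 100 μL/min in water and acetonitrile, each containing 0.1% formic acid, with 40 μL dead volume and 900 μL dwell volume.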

| Structure (SMILES) | RP-LC retention time |
| --- | --- |
| COc1ccc(-c2nc(NC3CCCC3)c3ccccc3n2)cc1 | 825 s |
| COc1ccccc1CNC(=O)C1CCCN(c2nnc3ccccn23)C1 (stereo not given) | 652 s |
| Cc1cc(C(=O)NCCc2ccc(Cl)cc2)n(-c2ccccc2)n1 | 911 s |
| O=C(Cc1cccc(F)c1)N1CCC(Nc2ncnc3c2CCC3)C1 (stereo not given) | 617 s |
| Cn1c(CN2CCN(C(=O)NC(C)(C)C)CC2)nc2cc(C(=O)N3CCCC3)ccc21 | 602 s |
| O=C(NCC(c1ccco1)N1CCN(c2ccccc2)CC1)Oc1ccccc1 (stereo not given) | 625 s |
| CCOc1ccc(-c2noc(-c3nc(C)no3)n2)cc1 | 986 s |
| Cc1csc(NC(=O)C2CCCN(c3ncnc4c3nc3n4CCCCC3)C2)n1 (stereo not given) | 756 s |
| CC(=O)N1CCC(c2nc(C)c(C(=O)O)s2)CC1 | 588 s |
| O=C(c1ccc(Cl)cc1)N1CCC(n2c(-c3ccco3)nc3cccnc32)C1 (stereo not given) | 805 s |
| O=C(Nc1cccc(Cl)c1)C(=O)c1cn(CC(=O)N2CCOCC2)c2ccccc12 | 997 s |
| Cc1ccc(Sc2nccnc2N2CCCC(C(=O)NCc3ccc(F)cc3)C2)cc1 (stereo not given) | 1100 s |
| O=c1c2ccccc2c(-c2nc(-c3cccnc3)no2)cn1-c1cccc(Cl)c1 | 1130 s |
| CCc1cc(=O)n(CC(=O)NCc2ccccc2OC)c(N)n1 | 602 s |
| CC(C)NC(=O)c1cc(C(C)C)[nH]n1 | 660 s |
| CCS(=O)(=O)N(C1CC1)C1CCOC2(CCN(C(=O)c3sc(C)nc3C)CC2)C1 (stereo not given) | 714 s |
| Cn1nccc1C(=O)N1CCC(c2noc(-c3ccccc3)n2)C1 (stereo not given) | 755 s |
| Cn1nccc1C(=O)Nc1ccc(Br)cc1 | 791 s |
| Cn1cc(CN2CCC(C(=O)NCCc3ccco3)CC2)c2cc(Cl)ccc21 | 679 s |
| O=C(NC1CCCCCC1)c1cccnc1N1CCNC(c2ccccc2)C1 (stereo not given) | 656 s |
| O=C(O)CCN1C(=O)C2C3C=CC(C3)C2C1=O (stereo not given) | 570 s |

| Structure (SMILES) | RP-LC retention time |
| --- | --- |
| CCOc1cc(C(=O)N2CCNC(=O)C2C)cc(OCC)c1OCC (stereo not given) | 638 s |
| CC1CCN(c2cc(-n3cnc(C(=O)N4CCOCC4)c3)ncn2)CC1 | 750 s |
| CCOC(=O)c1sc(NC(=O)C(C)(C)C)nc1-c1ccccc1 | 592 s |
| O=C(NCCc1ccc(F)cc1)C(=O)Nc1ccc(Cl)cn1 | 918 s |
| CCn1cc(C)c(C(=O)O)c1CC(=O)NCCN1CCOCC1 | 582 s |
| COc1ccc(OC)c(NC(=O)C2CCN(c3cc(N4CCCCC4)ncn3)CC2)c1 | 709 s |
| CCCn1cc(C2=CCN(C(=O)NC3CCCCC3)CC2)c2cccnc21 | 943 s |
| Nc1c(C(=O)Nc2ccccc2F)sc2nc3c(cc12)CCCC3 | 996 s |
| Cc1c(C(=O)N2CCCC2)cnn1-c1ccc(-c2nc(C(C)(C)C)no2)cn1 | 1010 s |
| CCSc1nnc(NC(=O)CSc2nnc(-c3ccco3)o2)s1 | 726 s |
| COc1ccccc1-c1noc(C2CCCN2C(=O)c2ccsc2)n1 (stereo not given) | 802 s |
| O=S(=O)(c1cc(-c2noc(C3CCCC3)n2)cs1)N1CCC2(CC1)OCCO2 | 1140 s |
| CCCNC(=O)CCc1nc2ccccc2n(CC(=O)NCc2ccccc2)c1=O | 1270 s |
| Cn1cnc(S(=O)(=O)NCCN2C(=O)C3(CCCCC3)C2c2ccccc2)c1 (stereo not given) | 722 s |
| CCn1nccc1-c1cccc(-c2noc(-c3ccc(F)cc3)n2)c1 | 1240 s |
| CCOc1ccccc1C(=O)N1CCCCC1c1nncn1CC1CC1 (stereo not given) | 746 s |
| O=c1c2sccc2n(Cc2nc(-c3ccc(C(F)(F)F)cc3)no2)c(=O)n1-c1ccc(F)cc1 | 1080 s |
| O=C(NCC1CCCCC1)C1CCN(C(=O)c2ncn3c2COC(c2ccc(F)cc2)C3)CC1 (stereo not given) | 846 s |
| CCCNc1cc(N2CCC(CCC(=O)N(C)CCC)CC2)ncn1 | 589 s |
| COCCn1cc(CCNC(=O)Nc2cccc(F)c2)c2cccnc21 | 732 s |
| COC(=O)C(C)NC(=O)NCc1cccn1Cc1ccccc1C (stereo not given) | 821 s |

The next lines start with the values.

| RP-LC retention time | Structure (SMILES) |
| --- | --- |
| 775 s | Cc1cccc(NC(=O)Cn2c(=O)n3nc(CCn4nc(C)cc4C)nc3c3ccccc32)c1 |
| 976 s | CC(C)(C)c1csc(NC(=O)c2ccc3c(c2)OCCO3)n1 |
| 762 s | CC(C)CC(=O)Nc1ccc2nc(N3CCN(c4cccc(Cl)c4)CC3)cc(C(=O)O)c2c1 |
| 1000 s | COc1ccc(N2CCN(c3cc(SCC(=O)Nc4cccc(SC)c4)ncn3)CC2)cc1 |
| 676 s | CCN(CC)c1ccc(NC(=O)C2Cc3cc(S(=O)(=O)N4CCCC4)ccc3N2C(C)=O)c(C)c1 (stereo not given) |
| 1010 s | Cc1ccc(CNC(=O)c2nc3cccnc3n(CC(C)C)c2=O)cc1 |
| 901 s | Cc1cccc(C)c1-n1ccn(Cc2nc(-c3cccc(F)c3)no2)c(=O)c1=O |
| 1110 s | Cc1ccc(-n2c(-c3ccc(Cl)cc3)cn3c4c(=O)n(C)c(=O)n(C)c4nc23)c(C)c1 |
| 868 s | O=C(CSc1nnnn1-c1ccccc1)c1ccc2c(c1)OCCO2 |
| 730 s | CN(C)S(=O)(=O)c1ccc(C(=O)NCc2ccsc2)cc1 |
| 821 s | O=C(Nc1cc(C(F)(F)F)ccc1Cl)c1ccc(N2C(=O)CCC2=O)cc1 |
| 708 s | Cc1cccc(OCc2ccc(-c3nc(C#N)c(NCCN(C)C)o3)o2)c1 |
| 678 s | COc1cc(=O)c(C(=O)Nc2ccc(S(N)(=O)=O)cc2)nn1-c1ccc(F)cc1 |
| 1080 s | Cc1ccc(S(=O)(=O)N2CC=C(c3cn(C)c4ncccc34)CC2)cc1C |
| 778 s | N#CCCc1ccc2c(c1)-c1[nH]c3ccc([N+](=O)[O-])cc3c1CC(=O)N2 |
| 784 s | CCNS(=O)(=O)c1cc(-c2csc(C)n2)ccc1OC |
| 1130 s | Cc1ccc(-c2noc(Cc3nnc(-c4cccc(C)c4)o3)n2)cc1 |
| 702 s | Cc1ccc(CNC(=O)C2CCN(C(=O)c3nn(C)c4c3CN(C(=O)C(C)C)CC4)CC2)cc1 |
| 1010 s | CC(=O)c1cccc(NC(=O)COc2ccc(C(C)(C)C)cc2)c1 |
| 866 s | CC(CNC(=O)CC1CCN(S(=O)(=O)c2ccccc2)CC1)c1ccccc1 (stereo not given) |
| 915 s | CCC(C)(C)C(=O)N1CCCN(C2=NS(=O)(=O)C(c3ccc(C)cc3)=C2C)CC1 |
| 742 s | Cc1cc(=O)n(CCc2ccccc2)c(N2CCCC2)n1 |
| 846 s | Cc1ccc(NS(=O)(=O)c2cc3n(c2)CCN(CC(C)C)C3=O)cc1C |
| 734 s | Cc1ccc(NC(=O)Cn2cnc3nc4c(cc3c2=O)CCCC4)c(C)c1 |

| RP-LC retention time | Structure (SMILES) |
| --- | --- |
| 856 s | O=c1ccc(-c2cccs2)nn1CCCNS(=O)(=O)c1cccc(Cl)c1Cl |
| 1010 s | COc1ccc(NC(=O)C2(C)Oc3cccnc3N(C(C)C)C2=O)c(OC)c1 (stereo not given) |
| 626 s | COc1cccc(CNC(=O)c2ccc3c(c2)nc2n3CCN(Cc3ccccn3)C2=O)c1 |
| 587 s | CN(C)c1ncncc1N1CCC(C(=O)NCc2ccc3c(c2)OCO3)CC1 |
| 781 s | CCN(c1ccccc1)S(=O)(=O)c1cc(-c2[nH]ncc2C(=O)N2CCCC2)oc1C |
| 620 s | O=C(c1ccc2nc[nH]c2c1)N1CCCN(c2cc(-c3ccc(Cl)cc3)[nH]n2)CC1 |
| 587 s | Cc1cc(N2CCN(C)CC2)nc2ccc(NC(=O)Nc3ccc(F)cc3)cc12 |
| 746 s | Clc1ccc2nc(-c3ccccc3)c(Nc3ccc4c(c3)OCCO4)n2c1 |
| 978 s | COc1cc(OC)c(NC(=O)C(=O)c2ccc[nH]2)cc1Cl |
| 791 s | O=C(Nc1ccc(Cl)c(N2CCCS2(=O)=O)c1)c1ccccc1C(F)(F)F |
| 776 s | Cc1ccccc1C(=O)N1C[C@@H]2C[C@H]1C[C@@H]2NS(=O)(=O)c1cccs1 |
| 853 s | Cc1ccccc1-c1noc(Cc2nnc(-c3cccc(Br)c3)o2)n1 |
| 631 s | NS(=O)(=O)c1ccc(CNC(=O)C2CN(C(=O)c3ccc(F)c(F)c3)C2)cc1 |
| 820 s | CN(C)S(=O)(=O)c1ccc2c(c1)Cc1cc(S(=O)(=O)N(C)C)ccc1-2 |
| 646 s | Cc1cc(F)cc2c(=O)c3c([nH]c12)CCN(CC(=O)Nc1cccc(Cl)c1)C3 |
| 560 s | CN(C)C(=O)c1cc2c(s1)CCC(C(=O)NCCc1ccccn1)C2 (stereo not given) |
| 876 s | CC(=O)N1c2ccc(S(=O)(=O)N3CCCC3)cc2CC1C(=O)Nc1c(C)cc(C)cc1C (stereo not given) |
| 726 s | CC(NC(=O)c1cc(-c2ccc(Cl)cc2)cn1C)c1cccnc1 (stereo not given) |
| 1200 s | CCOC(=O)c1cc(C2CC2)nc2c1c(=O)n(Cc1ccc(F)cc1)c(=O)n2C |
| 596 s | COc1ccccc1-c1nc2cnccn2c1NCCC(=O)N(C)C |
| 924 s | CCOc1ccc(-c2noc(CN3N=NC4C(=O)N(c5ccc(OC)cc5)C(=O)C43)n2)cc1OC (stereo not given) |
| 1380 s | COc1ccc(OC)c(Nc2nc(N(C)C)nc3c2cnn3-c2ccccc2)c1 |
| 941 s | CCOc1ccc(-c2ccc(SCC)nn2)cc1 |
| 1000 s | CC1(C(=O)NCc2ccc(F)cc2)CCN(S(=O)(=O)c2ccc(Br)cc2)CC1 |
